Converted amounts (≈) assume the structure as drawn.
Key:
Enterobacter cloacae [1] = assay: Antimicrobial activity against carbapenem-resistant Enterobacter cloacae NJ91 deficient in CTX-M-14, ompC/F by CLSI method; assay type: functional
Klebsiella pneumoniae [2] = assay: Antimicrobial activity against carbapenem-resistant Klebsiella pneumoniae CY75 deficient in SHV-11, DHA-1, ompK35/36 by CLSI method; assay type: functional
Klebsiella pneumoniae [3] = assay: Antimicrobial activity against Klebsiella pneumoniae FZ47T expressing IMP-8, TEM-1, CTX-M-14, qnrB2, aac(6')-Ib by CLSI method; assay type: functional
Escherichia coli [4] = assay: Antimicrobial activity against Escherichia coli ZJ86T expressing KPC-2 by CLSI method; assay type: functional
Escherichia coli [5] = assay: Antimicrobial activity against Escherichia coli C600 transconjugant WH77T expressing IMP-4, TEM-1, CTX-M-3, qnrS1 by CLSI method
Klebsiella pneumoniae [6] = assay: Antimicrobial activity against carbapenem-resistant Klebsiella pneumoniae PU105 deficient TEM-1, SHV-12, CTX-M-14, DHA-1, qnrB10/B4-like, aac(6')-Ib-cr, ompK35/36 by CLSI method; assay type: functional
Escherichia coli [7] = assay: Antimicrobial activity against Escherichia coli C600 transconjugant XJ81T expressing TEM-1, SHV-12, aac(6')-Ib by CLSI method
Escherichia coli [8] = assay: Antimicrobial activity against carbapenem-resistant Escherichia coli PU101 deficient in TEM-1, CTX-M-14, CMY-2, ompC by CLSI method; assay type: functional
Escherichia coli [9] = assay: Antimicrobial activity against Escherichia coli PU102T expressing TEM-1, CTX-M-14, CMY-2 by CLSI method; assay type: functional
Enterobacter cloacae [10] = assay: Antimicrobial activity against carbapenem-resistant Enterobacter cloacae NJ90 deficient in CTX-M-14, ompC/F by CLSI method; assay type: functional
Escherichia coli [11] = assay: Antimicrobial activity against carbapenem-resistant Escherichia coli PU102 deficient in TEM-1, CTX-M-14, CMY-2, aac(6')-Ib, ompC DEc, ompF by CLSI method; assay type: functional
Klebsiella pneumoniae [12] = assay: Antimicrobial activity against Klebsiella pneumoniae PU104T expressing TEM-1, CTX-M-15 by CLSI method; assay type: functional
Escherichia coli [13] = assay: Antimicrobial activity against carbapenem-resistant Escherichia coli PU60 deficient in TEM-1, CMY-2, ompC/F by CLSI method; assay type: functional
Klebsiella pneumoniae [14] = assay: Antimicrobial activity against Klebsiella pneumoniae FZ49T expressing IMP-8, TEM-1, CTX-M-14, qnrB2, aac(6')-Ib by CLSI method; assay type: functional
Enterobacter cloacae [15] = assay: Antimicrobial activity against carbapenem-resistant Enterobacter cloacae GX56 deficient in ompC and expressing low levels of ompF DE by CLSI method; assay type: functional
Klebsiella pneumoniae [16] = assay: Antimicrobial activity against carbapenem-resistant Klebsiella pneumoniae ZJ18 deficient in KPC-2, SHV-28, DHA-1, ompK35 by CLSI method; assay type: functional
Klebsiella pneumoniae [17] = assay: Antimicrobial activity against carbapenem-resistant Klebsiella pneumoniae ZJ71 deficient in KPC-2, TEM-1, SHV-11, CTX-M-14, ompK35 by CLSI method; assay type: functional
Klebsiella pneumoniae [18] = assay: Antimicrobial activity against carbapenem-resistant Klebsiella pneumoniae GZ83 deficient in SHV-11, CTX-M-14, ompK35/36 by CLSI method; assay type: functional
Enterobacter cloacae [19] = assay: Antimicrobial activity against carbapenem-resistant Enterobacter cloacae RJ94 deficient in IMP-4, TEM-1, CTX-M-3, ompC by CLSI method; assay type: functional
Escherichia coli [20] = assay: Antimicrobial activity against Escherichia coli PU101T expressing CMY-2 by CLSI method; assay type: functional
Klebsiella pneumoniae [21] = assay: Antimicrobial activity against carbapenem-resistant Klebsiella pneumoniae PU5 deficient in SHV-12, DHA-1, aac(6')-Ib-cr, ompK35/36 by CLSI method; assay type: functional
Klebsiella pneumoniae [22] = assay: Antimicrobial activity against Klebsiella pneumoniae WH97 expressing SHV-33, aac(6')-Ib, ompK35 DE by CLSI method; assay type: functional
Escherichia coli [23] = assay: Antimicrobial activity against Escherichia coli ZJ87 expressing KPC-2, TEM-1, ompC by CLSI method; assay type: functional
Klebsiella pneumoniae [24] = assay: Antimicrobial activity against Klebsiella pneumoniae ZJ18T expressing KPC-2, DHA-1 by CLSI method; assay type: functional
Klebsiella pneumoniae [25] = assay: Antimicrobial activity against Klebsiella pneumoniae GZ64T expressing IMP-4 by CLSI method; assay type: functional
Klebsiella pneumoniae [26] = assay: Antimicrobial activity against carbapenem-resistant Klebsiella pneumoniae PU3 deficient in DHA-1, aac(6')-Ib-cr, ompK35/36 by CLSI method; assay type: functional
Enterobacter cloacae [27] = assay: Antimicrobial activity against carbapenem-resistant Enterobacter cloacae SZ93 deficient in ompC by CLSI method; assay type: functional
Escherichia coli [28] = assay: Antimicrobial activity against carbapenem-resistant Escherichia coli ZJ86 expressing KPC-2, TEM-1 with ompC loss by CLSI method
Enterobacter cloacae [29] = assay: Antimicrobial activity against carbapenem-resistant Enterobacter cloacae NJ89 deficient in CTX-M-14, ompC/F by CLSI method; assay type: functional
Escherichia coli [30] = assay: Antimicrobial activity against Escherichia coli C600 transconjugant SZ62T expressing IMP-4, qnrS1by CLSI method
Citrobacter freundii = assay: Antimicrobial activity against Citrobacter freundii RJ78 expressing CMY-2, qnrA1, aac(6')-Ib-cr, ompC by CLSI method; assay type: functional
Escherichia coli [31] = assay: Antimicrobial activity against Escherichia coli HX74T expressing CTX-M-3 by CLSI method; assay type: functional

Molecule | MIC (Enterobacter cloacae [1]) [µg/mL] | MIC (Klebsiella pneumoniae [2]) [µg/mL] | MIC (Klebsiella pneumoniae [3]) [µg/mL] | MIC (Escherichia coli [4]) [µg/mL] | MIC (Klebsiella pneumoniae [6]) [µg/mL] | MIC (Escherichia coli [8]) [µg/mL] | MIC (Escherichia coli [9]) [µg/mL] | MIC (Enterobacter cloacae [10]) [µg/mL] | MIC (Escherichia coli [11]) [µg/mL] | MIC (Klebsiella pneumoniae [12]) [µg/mL] | MIC (Escherichia coli [13]) [µg/mL] | MIC (Klebsiella pneumoniae [14]) [µg/mL] | MIC (Enterobacter cloacae [15]) [µg/mL] | MIC (Klebsiella pneumoniae [16]) [µg/mL] | MIC (Klebsiella pneumoniae [17]) [µg/mL] | MIC (Klebsiella pneumoniae [18]) [µg/mL] | MIC (Enterobacter cloacae [19]) [µg/mL] | MIC (Escherichia coli [20]) [µg/mL] | MIC (Klebsiella pneumoniae [21]) [µg/mL] | MIC (Klebsiella pneumoniae [22]) [µg/mL] | further results
C[C@@H](O)[C@H]1C(=O)N2C(C(=O)O)=C(S[C@@H]3CN[C@H](C(=O)Nc4cccc(C(=O)O)c4)C3)[C@H](C)[C@H]12 | 128 (≈ 269 µM) | 64 (≈ 135 µM) | 4 (≈ 8.41 µM) | 16 (≈ 33.6 µM) | 128 (≈ 269 µM) | 128 (≈ 269 µM) | 0.25 (≈ 0.526 µM) | 128 (≈ 269 µM) | 64 (≈ 135 µM) | 0.016 (≈ 0.0336 µM) | 64 (≈ 135 µM) | 4 (≈ 8.41 µM) | 32 (≈ 67.3 µM) | 16 (≈ 33.6 µM) | 16 (≈ 33.6 µM) | 128 (≈ 269 µM) | 32 (≈ 67.3 µM) | 0.25 (≈ 0.526 µM) | 64 (≈ 135 µM) | 4 (≈ 8.41 µM) | MIC (Escherichia coli [5]): 4 µg/mL (≈ 8.41 µM); MIC (Escherichia coli [7]): 0.008 µg/mL (≈ 0.0168 µM); MIC (Escherichia coli [23]): 16 µg/mL (≈ 33.6 µM); MIC (Klebsiella pneumoniae [24]): 2 µg/mL (≈ 4.21 µM); MIC (Klebsiella pneumoniae [25]): 4 µg/mL (≈ 8.41 µM); MIC (Klebsiella pneumoniae [26]): 64 µg/mL (≈ 135 µM); MIC (Enterobacter cloacae [27]): 0.064 µg/mL (≈ 0.135 µM); MIC (Escherichia coli [28]): 32 µg/mL (≈ 67.3 µM); MIC (Enterobacter cloacae [29]): 128 µg/mL (≈ 269 µM); MIC (Escherichia coli [30]): 4 µg/mL (≈ 8.41 µM); MIC (Citrobacter freundii): 8 µg/mL (≈ 16.8 µM); MIC (Escherichia coli [31]): 0.064 µg/mL (≈ 0.135 µM)
POLYMYXIN B | 0.5 | 1 | 0.25 | 0.5 | 32 | 0.5 | 0.25 | 0.5 | 0.5 | 0.25 | 0.5 | 0.25 | 0.5 | 0.5 | 1 | 1 | 0.5 | 0.25 | 1 | 0.5 | MIC (Escherichia coli [23]): 0.5 µg/mL; MIC (Klebsiella pneumoniae [24]): 0.25 µg/mL; MIC (Klebsiella pneumoniae [25]): 0.5 µg/mL; MIC (Klebsiella pneumoniae [26]): 0.5 µg/mL; MIC (Enterobacter cloacae [27]): > 32 µg/mL; MIC (Enterobacter cloacae [29]): 0.5 µg/mL; MIC (Citrobacter freundii): 2 µg/mL; MIC (Escherichia coli [31]): 0.25 µg/mL
NCC[C@H](O)C(=O)N[C@@H]1C[C@H](N)[C@@H](O[C@H]2O[C@H](CN)[C@@H](O)[C@H](O)[C@H]2O)[C@H](O)[C@H]1O[C@H]1O[C@H](CO)[C@@H](O)[C@H](N)[C@H]1O [AMIKACIN] | > 256 | 2 (≈ 3.42 µM) | > 256 | 32 (≈ 54.6 µM) | > 256 | 4 (≈ 6.83 µM) | 1 (≈ 1.71 µM) | > 256 | 64 (≈ 109 µM) | 2 (≈ 3.42 µM) | 32 (≈ 54.6 µM) | > 256 | > 256 | > 256 | > 256 | > 256 | 0.5 (≈ 0.854 µM) | 1 (≈ 1.71 µM) | > 256 | 1 (≈ 1.71 µM) | MIC (Escherichia coli [5]): 1 µg/mL (≈ 1.71 µM); MIC (Escherichia coli [7]): 16 µg/mL (≈ 27.3 µM); MIC (Escherichia coli [23]): 1 µg/mL (≈ 1.71 µM); MIC (Klebsiella pneumoniae [24]): > 256 µg/mL; MIC (Klebsiella pneumoniae [25]): 1 µg/mL (≈ 1.71 µM); MIC (Klebsiella pneumoniae [26]): 16 µg/mL (≈ 27.3 µM); MIC (Enterobacter cloacae [27]): 1 µg/mL (≈ 1.71 µM); MIC (Escherichia coli [28]): 1 µg/mL (≈ 1.71 µM); MIC (Enterobacter cloacae [29]): > 256 µg/mL; MIC (Escherichia coli [30]): 1 µg/mL (≈ 1.71 µM); MIC (Citrobacter freundii): 8 µg/mL (≈ 13.7 µM); MIC (Escherichia coli [31]): 2 µg/mL (≈ 3.42 µM)
CO/N=C(\C(=O)N[C@@H]1C(=O)N2C(C(=O)O)=C(COC(C)=O)CS[C@H]12)c1csc(N)n1 [CEFOTAXIME] | > 256 | > 256 | 128 (≈ 281 µM) | 32 (≈ 70.3 µM) | > 256 | > 256 | 256 (≈ 562 µM) | > 256 | > 256 | 256 (≈ 562 µM) | 256 (≈ 562 µM) | 128 (≈ 281 µM) | > 256 | 128 (≈ 281 µM) | 256 (≈ 562 µM) | > 256 | > 256 | 128 (≈ 281 µM) | > 256 | 128 (≈ 281 µM) | MIC (Escherichia coli [5]): 256 µg/mL (≈ 562 µM); MIC (Escherichia coli [7]): 4 µg/mL (≈ 8.78 µM); MIC (Escherichia coli [23]): 64 µg/mL (≈ 141 µM); MIC (Klebsiella pneumoniae [24]): 8 µg/mL (≈ 17.6 µM); MIC (Klebsiella pneumoniae [25]): 128 µg/mL (≈ 281 µM); MIC (Klebsiella pneumoniae [26]): 128 µg/mL (≈ 281 µM); MIC (Enterobacter cloacae [27]): 1 µg/mL (≈ 2.2 µM); MIC (Escherichia coli [28]): 64 µg/mL (≈ 141 µM); MIC (Enterobacter cloacae [29]): > 256 µg/mL; MIC (Escherichia coli [30]): 128 µg/mL (≈ 281 µM); MIC (Citrobacter freundii): 256 µg/mL (≈ 562 µM); MIC (Escherichia coli [31]): > 256 µg/mL

From ChEMBL document CHEMBL1212738, “Phenotypic and genotypic characterization of Enterobacteriaceae with decreased susceptibility to carbapenems: results from large hospital-based surveillance studies in China” (2010)
